Laboratory results taken from patent US20080227829A1, “Neurogenic compounds” (priority 2007, published 2008).
Entries after “also recorded” stand apart in the source; their conditions may differ.

Tests used:
dentate gyrus = assay: 10-day oral (food) and i.p. study, BrdU/DAB quantification of dividing cells; type: in vivo, mice; details: 10 days; i.p. injection (apigenin 25 mg/kg, epicatechin 20 mg/kg) or food 250 ppm and 500 ppm; vs controls
Procedure: A 10-day food study was conducted in which the effects of oral administration of apigenin were compared with apigenin effects upon injection. Food pellets containing epicatechin were tested alongside apigenin. Animals were fed food containing apigenin, epicatechin or control pellets in two doses: 250 ppm and 500 ppm. Aliquots of apigenin and epicatechin were dissolved in [10:90] Tween 80: 0.9% NaCl. Aliquots of Tween 80: 0.9% NaCl were used as controls. Forty mice (age seven weeks) were divided into three test injection groups (n=five per group) and five test food groups (n=five per group) and received: Test injections were administered i.p. for ten days total. Test food was distributed on Day 1 and mice were allowed to eat freely for the duration of the ten days. Daily i.p. injections of BrdU [10 mg/ml] were administered to all animals the first eight days of this study at a dose of 50 mg/kg. At the end of ten days, all mice were perfused using 4% paraformaldehyde and their brain tissue was extracted. Brain tissue was sectioned and stained for BrdU/DAB quantification for dividing cells.

NeuroD = NeuroD luciferase reporter assay; type: cell-based; details: 5 mM apigenin; cells first allowed to proliferate with FGF2 for twenty-four hours; 2-day treatment
Procedure: Adult neural progenitor cells were plated in N2 media containing FGF2 for twenty-four hours. See Bottenstein et al., Growth of a rat neuroblastoma cell line in serum-free supplemented medium, Proc. Natl. Acad. Sci. USA 76(1) (1979) (describing components of N2 media).
The cells were replaced with fresh N2 media (without FGF2) and apigenin was added. In all experiments, 5 mM apigenin dissolved in DMSO was used. As a positive control for neuronal differentiation, N2 media containing retinoic acid (RA) and forskolin (FSK) was used. As a negative control, N2 media and the equivalent amount of DMSO or N2 was used. Either a NeuroD luciferase reporter assay (purchased from Promega, cat. No. e-1980, Dual-Luciferase Reporter 1000 Assay System) was performed two days later or immunohistochemistry was performed four days later. […]

[1] = system: Adult neural progenitor cells; assay: Immunohistochemistry with lineage-specific markers (Tuj 1, GFAP, RIP); type: cell-based
Procedure: Adult neural progenitor cells were plated in N2 media containing FGF2 for twenty-four hours. See Bottenstein et al., Growth of a rat neuroblastoma cell line in serum-free supplemented medium, Proc. Natl. Acad. Sci. USA 76(1) (1979) (describing components of N2 media). The cells were replaced with fresh N2 media (without FGF2) and apigenin was added. In all experiments, 5 mM apigenin dissolved in DMSO was used. As a positive control for neuronal differentiation, N2 media containing retinoic acid (RA) and forskolin (FSK) was used. As a negative control, N2 media and the equivalent amount of DMSO or N2 was used. Either a NeuroD luciferase reporter assay (purchased from Promega, cat. No. e-1980, Dual-Luciferase Reporter 1000 Assay System) was performed two days later or immunohistochemistry was performed four days later. The immunohistochemical analysis of the apigenin-treated and control cells was performed by fixing and staining the cells after four days with lineage-specific markers (Tuj 1 for neurons, GFAP for astrocytes, and RIP for oligodendrocytes). Tuj 1 is a neuron-specific class III beta-tubulin used as a marker for new neurons. GFAP (glial fibrillary acidic protein), an intermediate-filament protein which is expressed almost exclusively in the astrocytes of the central nervous system, is used as a marker for new astrocytes. RIP is a monoclonal antibody used as an early marker of developing oligodendrocytes.

AKT = assay: Western blot of phosphorylated signaling mediators; type: cell-based; details: 5 mM apigenin; by six hours; adult neural progenitor cells starved two hours; normalized to unphosphorylated form
Procedure: (§1) Adult neural progenitor cells were grown in proliferating conditions (N2 containing FGF2) in six-well plates for at least twenty-four hours. Before collecting cell lysates, the media was removed and replaced with DMEM/F12 for two hours (DMEM/F12 is defined media which lacks insulin and FGF2, two factors known to trigger various cell signaling pathways). In this key “starvation” step, the activation of various downstream mediators returned to steady-state levels. Cells were starved for two hours and the time zero data were collected. One of the following was added and the lysates collected at various time-points: (1) N2 only or (−) DMSO (negative control); (2) (+) DMSO (also a negative control); (3) apigenin; or (4) RA+FSK (positive control). Two time-course experiments were then carried out. The first was an early time-course to measure the acute effects of apigenin at zero minutes, ten minutes, thirty minutes, two hours, six hours, and twenty-four hours. The second experiment was a late time-course to measure long-term effects of apigenin at zero, one, two, three, and four days; the results of this experiment are not discussed here. Cell lysates were then loaded and transferred to Western Blots and the membranes hybridized with antibodies against the phosphorylated and unphosphorylated forms of each protein. The data results with the unphosphorylated form of the protein are not discussed here. The data discussed with respect to the phosphorylated protein are representative of at least three independent experiments and are normalized to the unphosphylated forms (internal control).

CREB = assay: Western blot of phosphorylated signaling mediators; type: cell-based; details: adult neural progenitor cells; negative controls show the same results
Procedure: as §1

ERKs = assay: Western blot of phosphorylated signaling mediators; type: cell-based; details: adult neural progenitor cells; negative controls show the same results
Procedure: as §1

GSK3b = assay: Western blot of phosphorylated signaling mediators; type: cell-based; details: adult neural progenitor cells; negative controls show the same results
Procedure: as §1

b-catenin = assay: Western blot of phosphorylated signaling mediators; type: cell-based; details: adult neural progenitor cells; negative controls show the same results
Procedure: as §1

[2] = 5 mM apigenin, cells first proliferating in FGF2, four days

NeuroD-activation (luciferase) as compared to activation by RA+FSK (NeuroD): two-fold higher
SMILES: O=c1cc(-c2ccc(O)cc2)oc2cc(O)cc(O)c12 [apigenin]
number of dividing cells (BrdU+) in the dentate gyrus (dentate gyrus): significant increase in the number of dividing cells; also recorded: increased BrdU labeling
astrocyte (GFAP) differentiation [1, 2]: 1-5%
oligodendrocyte (RIP) differentiation [1, 2]: 1-5%
percentage of Tuj 1-positive neurons ([1]; 5 mM apigenin, directly plated into N2 media without FGF2, four days): 5 to 30%
difference in Tuj 1 or Map2ab-positive neurons with or without FGF-2 pre-treatment ([1]; repeated experiments): no significant difference
phosphorylation of AKT (pAKT) (AKT): increased phosphorylation of AKT
phosphorylation of CREB (CREB): non-specific effects
phosphorylation of ERKs (ERKs): non-specific effects
phosphorylation of GSK3b (GSK3b): non-specific effects
phosphorylation of b-catenin (b-catenin): non-specific effects
